Results published in PMC12489727, “Malonyl-Caffeoylquinic Acids and Malonyl-Flavonoid-Glucosides from Three Edible Apiaceae Plants Anthriscus Cerefolium, Anthriscus Sylvestris, and Chaerophyllum Bulbosum” (ACS Omega, 2025).

How the values were obtained:
[1] = test system: Vero E6 cells; test: In vitro cytostatic effect, Alamar Blue viability assay, Vero E6; assay type: cell-based, African green monkey; conditions: then 72 h culture
Experimental: (§1) The cytostatic effects of the compounds were evaluated in vitro on various cancer cells and noncancerous Vero E6 cells using the Alamar Blue viability assay, as detailed in the Supporting Information.
(§2) The cytostatic effects of MDiCQAs and FMGls were evaluated in vitro using the Alamar Blue viability assay on five human cancer cell lines: colorectal carcinoma (HT-29), glioma (U87), hepatocellular carcinoma (HepG2), promyelocytic leukemia (HL-60), and melanoma (A2058). They were also tested on nontumorous Vero E6 cells, kidney epithelial cells from an African green monkey, to evaluate the selectivity of the compounds. […] The two effective MDiCQAs (4 and 9) share a common structural feature: their central quinic acid core is substituted with caffeoyl moieties at the C-1 and C-5 positions and a malonyl group at the C-3 position. In contrast, the ineffective compound 7 has caffeoyl moieties at the same positions, but its malonyl group is attached to the C-4 position instead of C-3. Similarly, in the other ineffective MDiCQAs (5 and 6), the malonyl unit is also located at the C-4 position, while their caffeoyl groups are positioned at C-3 and C-5. […] The results also indicate a high degree of isomer-specificity in the cytostatic activity of MDiCQAs. […] In particular, the inhibition of Vero E6 cells by the MDiCQAs (4 and 9) can be considered as a strong effect, and that of the FMGl (3) as a weaker one, with IC50 values below 10 μM and around 40 μM, respectively. […]
(§3) Determination of the In Vitro Cytostatic Effects of Compounds. In vitro, the cytostatic effect of the compounds was determined on various human tumor- and non-human primate Vero E6 cells using Alamar Blue end-point viability assay. Cells were cultured in DMEM medium supplemented with 10% FBS, 2 mM L-glutamine, 50 IU/mL penicillin/50 µg/mL streptomycin antibiotic cocktail, 1 mM sodium pyruvate and 1% non-essential amino acid mixture at 37 °C in a humidified atmosphere with 5% CO2. At the confluent state, cells were plated into 96-well tissue culture plates with the initial cell number of 5.0×10^3 cells/well. Cells were treated with the compounds after 24 hours in a serum-free medium containing 1.0% (v/v) DMSO at 0.08 -100 µM concentration. Control cells were treated with serum-free medium or DMSO (c=1.0%, v/v ) containing serum-free medium. After overnight incubation, cells were washed twice with a serum-free medium; then, they were cultured for another 72 hours in the complete culturing medium at 37 °C. Following that, 22.5 µL Alamar Blue (resazurin sodium salt, Merck) solution (0.15 mg/mL in PBS) was added to each well and after 4 hrs of incubation, the fluorescence was measured at λEx = 530/30 and λEM = 610/10 nm using a Synergy H4 multi-mode microplate reader (BioTek). All measurements were performed in quadruplets, and the mean IC50 values and ± SEM were represented.

[2] = test system: melanoma (A2058); test: In vitro cytostatic effect, Alamar Blue viability assay, A2058; assay type: cell-based, human; conditions: A2058 cells, overnight treatment 0.08-100 µM, then 72 h culture
Experimental: as §1, §2, §3

[3] = test system: glioma (U87); test: In vitro cytostatic effect, Alamar Blue viability assay, U87; assay type: cell-based, human; conditions: U87 cells, overnight treatment 0.08-100 µM, then 72 h culture
Experimental: as §1, §2, §3

[4] = test system: promyelocytic leukemia (HL-60); test: In vitro cytostatic effect, Alamar Blue viability assay, HL-60; assay type: cell-based, human; conditions: HL-60 cells, overnight treatment 0.08-100 µM, then 72 h culture
Experimental: as §1, §2
as §3, with “All measurements were performed in quadruplets, and the mean IC50 values and ± SEM were represented.” left out

[5] = test system: hepatocellular carcinoma (HepG2); test: In vitro cytostatic effect, Alamar Blue viability assay, HepG2; assay type: cell-based, human; conditions: HepG2 cells, overnight treatment 0.08-100 µM, then 72 h culture
Experimental: as §1, §2, §3

[6] = test system: colorectal carcinoma (HT-29); test: In vitro cytostatic effect, Alamar Blue viability assay, HT-29; assay type: cell-based, human; conditions: HT-29 cells, overnight treatment 0.08-100 µM, then 72 h culture
Experimental: as §1, §2, §3

[7] = DPPH radical scavenging assay; assay type: biochemical; conditions: 6 min incubation at room temperature, absorbance at 515 nm, triplicate
Experimental: A DPPH radical scavenging assay was conducted following a previously published protocol, as detailed in the Supporting Information.
Antioxidant Activity Tests. A DPPH radical scavenging assay was used according to a previously
published protocol.13 Serial dilutions of compounds (prepared in methanol) were incubated with
DPPH solution for 6 min at room temperature. The reduction in absorbance was measured with a
HITACHI U-2000 spectrophotometer (Hitachi Ltd., Tokyo, Japan) at 515 nm. […]

[8] = test system: human leukemia cells (MOLM-13); parameters: method as in earlier work; conditions: MOLM-13 cells; previously reported; ref 40 (Slimestad et al., 2022); cited from earlier work
[9] = test system: noncancerous rat kidney epithelial cells (NRK); parameters: method as in earlier work; conditions: previously reported, ref 40 (Slimestad et al., 2022); cited from earlier work
[10] = Chlorocebus sabaeus, Vero C1008, 72 h, overnight treatment 0.08-100 µM
[11] = overnight treatment 0.08-100 µM

IC50 ([2]; Homo sapiens)	IC50 ([3]; Homo sapiens, U-87 MG)	IC50 ([4]; Homo sapiens)	IC50 ([5]; Homo sapiens)	IC50 ([6]; Homo sapiens)	IC50 [7]	Compound	IC50 [1, 10]	IC50 [1, 11]	further results
					18.4 ± 0.1 µM	Cc1c(C)c2c(c(C)c1O)CCC(C)(C(=O)O)O2 (stereo not drawn) [Trolox, reference compound]			
> 100 µM	> 100 µM		> 100 µM	> 100 µM	14.8 ± 0.6 µM	O=C(O)CC(=O)OC[C@H]1O[C@@H](Oc2cc(O)c3c(=O)cc(-c4ccc(O)c(O)c4)oc3c2)[C@H](OC(=O)CC(=O)O)[C@@H](O)[C@@H]1O [Compound 8, Luteolin-7-O-(2″,6″-di-O-malonyl)-β-D-glucoside]	> 100 µM		
11.9 ± 2.2 µM	48.5 ± 4.6 µM	> 100 µM	> 100 µM	47.9 ± 2.3 µM	13.6 ± 0.4 µM	O=C(O)CC(=O)OC1CC(OC(=O)C=Cc2ccc(O)c(O)c2)(C(=O)O)CC(OC(=O)C=Cc2ccc(O)c(O)c2)C1OC(=O)CC(=O)O (stereo not drawn) [Compound 9, 1,5-Dicaffeoyl-3,4-dimalonylquinic Acid]	< 10 µM	9.5 ± 3.1 µM	

Continued, compound first:

Compound	IC50 ([2]; Homo sapiens)	IC50 ([3]; Homo sapiens, U-87 MG)	IC50 ([4]; Homo sapiens)	IC50 ([5]; Homo sapiens)	IC50 ([6]; Homo sapiens)	IC50 [7]	IC50 [1, 10]	IC50 [1, 11]	further results
O=C(O)CC(=O)OC1CC(OC(=O)C=Cc2ccc(O)c(O)c2)(C(=O)O)CC(OC(=O)C=Cc2ccc(O)c(O)c2)C1O (stereo not drawn) [Compound 4, 1,5-Dicaffeoyl-3-malonylquinic Acid]	13.5 ± 1.5 µM	> 100 µM	29.7 ± 4.6 µM	25.6 ± 2.3 µM	> 100 µM		< 10 µM	9.9 ± 1.4 µM	
O=C(O)CC(=O)OC[C@H]1O[C@@H](Oc2c(-c3ccc(O)cc3)oc3cc(O)cc(O)c3c2=O)[C@H](O)[C@@H](O)[C@@H]1O [Compound 3, kaempferol-3-O-(6″-O-malonyl)-β-D-glucoside]						233.9 ± 0.9 µM		39.8 ± 2 µM	IC50 [2]: 21 ± 3 µM; IC50 [3]: 86.3 ± 9.4 µM; IC50 [4]: 51.4 ± 6.7 µM; IC50 [5]: 27.5 ± 3.4 µM; IC50 [6]: > 100 µM
1,3-dicaffeoyl-5-malonyl-δ-quinide									in vitro cytotoxicity [8]: nonselective in vitro cytotoxicity; in vitro cytotoxicity [9]: nonselective in vitro cytotoxicity
COc1cccc2c1C(=O)c1c(O)c3c(c(O)c1C2=O)C[C@@](O)(C(C)=O)C[C@@H]3O[C@H]1C[C@H](N)[C@H](O)[C@H](C)O1 [Daunomycin, reference compound]	0.2 ± 0.01 µM	0.6 ± 0.05 µM	0.16 ± 0.03 µM	0.54 ± 0.15 µM	0.9 ± 0.1 µM				IC50 ([1]; Chlorocebus sabaeus, Vero C1008, overnight treatment 0.08-100 µM): 1.7 ± 0.5 µM
O=C(O)CC(=O)OC[C@H]1O[C@@H](Oc2c(-c3ccc(O)c(O)c3)oc3cc(O)cc(O)c3c2=O)[C@H](O)[C@@H](O)[C@@H]1O [Compound 1, quercetin-3-O-(6″-O-malonyl)-β-D-glucoside]						22.5 ± 0.6 µM			
O=C(O)CC(=O)OC[C@H]1O[C@@H](Oc2cc(O)c3c(=O)cc(-c4ccc(O)c(O)c4)oc3c2)[C@H](O)[C@@H](O)[C@@H]1O [Compound 2, luteolin-7-O-(6″-O-malonyl)-β-D-glucoside]						7.8 ± 0.4 µM			
